Experimental findings from patent publication US8551453B2, “Aromatic triamide-lanthanide complexes” (The Regents of the University of California, priority 2003, dated 2013) are described below.

Common to all, as to format: physicochemical
Data set [1] can be described thus: Protonation constants of the ligand by spectrophotometric titration. The settings on record: free ligand; for PKa: IAM.
Data set [2] can be described thus: Stability constants of the Tb complex by spectrophotometric titration. The source says: (§1) The stability constants of the lanthanide complexes formed with the ligand H22TAMDIAM(9A) were estimated through spectrophotometric titrations.
(§2) The stability constants of the Eu and Tb complexes formed with the ligand H22TAMDIAM (9A) have been calculated form these experiments and the results are reported in the table.

Data set [3] can be described thus: Stability constants of the Eu complex by spectrophotometric titration. The method, then:
FIG. 3 Spectrophotometric titration of a 1:1 ratio Eu:H22MeTIAM (9A): I=0.1, 25° C., optical path=1 cm.
as §1, §2

The term pKa denotes the negative logarithm of the acid dissociation constant. A lower pKa goes with a stronger acid or weaker base. In the case of H4H(2,2)TIAM [Compound 9A], the “Proton Affinity Log […]011” value in data set [1] (cumulative protonation constant, 1 proton (phenolic)) is reported as 8.58(2). Moreover, the “Proton Affinity Log […]012” value in data set [1] (cumulative protonation constant, 2 protons) is recorded as 15.17(3). Further, the “Proton Affinity Log […]013” value in data set [1] (cumulative protonation constant, 3 protons) is on record as 20.38(4). In addition, the “Proton Affinity Log […]014” value in data set [1] (cumulative protonation constant, 4 protons) is 24.46(6). Further, the PKa in data set [1] (first phenolic proton (line Log […]011)) is 8.58; in data set [1] (fourth phenolic proton (line Log […]014)), 4.08; in data set [1] (second phenolic proton (line Log […]012)) it was 6.59; in data set [1] (third phenolic proton (line Log […]013)) it was 5.21. The “Log[…]11-1” value in data set [2] is recorded as 12.60(7); in data set [3] (1:1 Eu:ligand, I=0.1, 25° C.), 11.04(2). Moreover, the “Log[…]11-2” value in data set [2] was 3.62(9); in data set [3] (1:1 Eu:ligand, I=0.1, 25° C.), 1.98(10). The “Log[…]110” value is 17.85(3) in data set [2] and 17.29(1) in data set [3] (1:1 Eu:ligand, I=0.1, 25° C.). Moreover, the pKa in data set [2] (line Log[…]11-1) worked out at 5.25; in data set [2] (line Log[…]11-2) it was 8.98; in data set [3] (line Log[…]11-1), 6.25; in data set [3] (line Log[…]11-2) it was 9.06. For the same substance, the pM entry in data set [2] (n = 3) is “Tb, pM = 19.7,n = 3”; in data set [3] (n = 3), “Eu, pM = 18.2, n = 3”.
